From article PMC11679705 (2024)

Assays:
[1] = test system: F-SA5-T (DNA, G4) GGAAGGAGGGGTGACAGGG; assay: FRET melting; conditions: 10 mM K+, 90 mM Li+; 10 mM lithium cacodylate, pH 7.2; 5 µM compound, 0.2 µM DNA
[2] = test system: mit9438 (DNA, G4) GGCGTAGGTTTGGTCTAGGG; assay: UV/Vis titration; design: unit not given here; conditions: 100 mM K+, 10 mM lithium cacodylate, pH 7.2, independent-and-equivalent-sites model
[3] = test system: F-ds26-T (DNA, duplex) CAATCGGATCGAATTCGATCCGATTG; assay: FRET melting; conditions: 10 mM K+, 90 mM Li+; 10 mM lithium cacodylate, pH 7.2; 5 µM compound, 0.2 µM DNA
[4] = test system: ds26 (DNA, duplex) CAATCGGATCGAATTCGATCCGATTG; assay: UV/Vis titration; conditions: 100 mM K+, 10 mM lithium cacodylate, pH 7.2, independent-and-equivalent-sites model
[5] = test system: EBR1 (DNA, G4) GGGCAGGGGGTGATGGGGAGGAGCCAGGG; assay: UV/Vis titration; design: unit not given here; conditions: 100 mM K+, 10 mM lithium cacodylate, pH 7.2, independent-and-equivalent-sites model
[6] = test system: SA5 (DNA, G4) GGAAGGAGGGGTGACAGGG; assay: UV/Vis titration; design: unit not given here; conditions: 100 mM K+, 10 mM lithium cacodylate, pH 7.2, independent-and-equivalent-sites model
[7] = test system: F-SA3-T (DNA, G4) GGGGCTAATTGGGGCTGGTGG; assay: FRET melting; conditions: 10 mM K+, 90 mM Li+; 10 mM lithium cacodylate, pH 7.2; 5 µM compound, 0.2 µM DNA
[8] = test system: F-mit9438-T (DNA, G4) GGCGTAGGTTTGGTCTAGGG; assay: FRET melting; conditions: 10 mM K+, 90 mM Li+; 10 mM lithium cacodylate, pH 7.2; 5 µM compound, 0.2 µM DNA
[9] = test system: F-EBR1-T (DNA, G4) GGGCAGGGGGTGATGGGGAGGAGCCAGGG; assay: FRET melting; conditions: 10 mM K+, 90 mM Li+; 10 mM lithium cacodylate, pH 7.2; 5 µM compound, 0.2 µM DNA
[10] = test system: F-21-T (DNA, G4) GGGTTAGGGTTAGGGTTAGGG; assay: FRET melting; conditions: 10 mM K+, 90 mM Li+; 10 mM lithium cacodylate, pH 7.2; 5 µM compound, 0.2 µM DNA
[11] = test system: F-mit6363-T (DNA, G4) AGGGACGCGGGCGGGGGATATAGGGT; assay: FRET melting; conditions: 10 mM K+, 90 mM Li+; 10 mM lithium cacodylate, pH 7.2; 5 µM compound, 0.2 µM DNA

Structure (SMILES)	Ka ([2]; 7 µM ligand)	ΔTm [3] [°C]	Ka ([4]; 7 µM ligand) [µM⁻¹]	Ka ([5]; 7 µM ligand)	Ka ([6]; 7 µM ligand)	also measured
CCCNc1cc2c3c(ccc4c3c1C(=O)N(CCCN(C)C)C4=O)C(=O)N(CCCN(C)C)C2=O						ΔTm [1]: 4.7 ± 1.0 °C
C[N+](C)(C)c1ccc(/C=C/c2cc(/C=C/c3ccc([N+](C)(C)C)cc3)c(/C=C/c3ccc([N+](C)(C)C)cc3)cc2/C=C/c2ccc([N+](C)(C)C)cc2)cc1	1.420	-4.7 ± 0.6	0.562	0.801	1.065	ΔTm [7]: 9.7 ± 0.6 °C
C[N+](C)(C)c1ccc(/C=C/c2cc(/C=C/c3ccc([N+](C)(C)C)cc3)cc(/C=C/c3ccc([N+](C)(C)C)cc3)c2)cc1						Ka ([2]; 4 µM ligand): 0.821; Ka ([4]; 4 µM ligand): 0.083 µM⁻¹; Ka ([5]; 4 µM ligand): 0.672; Ka ([6]; 4 µM ligand): 0.651; ΔTm [7]: 31.3 ± 0.6 °C
C[n+]1ccc(-c2c3nc(c(-c4cc[n+](C)cc4)c4ccc([nH]4)c(-c4cc[n+](C)cc4)c4nc(c(-c5cc[n+](C)cc5)c5ccc2[nH]5)C=C4)C=C3)cc1						ΔTm [1]: 29.0 ± 2.1 °C; ΔTm [8]: 31.0 ± 0.0 °C
C[n+]1ccc(/C=C/c2cc(/C=C/c3cc[n+](C)cc3)c(/C=C/c3cc[n+](C)cc3)cc2/C=C/c2cc[n+](C)cc2)cc1	1.548	9.0 ± 1.0	0.267	0.367	0.513	ΔTm [9]: 35.3 ± 0.6 °C; ΔTm [10]: 34.7 ± 0.0 °C; ΔTm [11]: 33.0 ± 0.0 °C

Further lines, with some results ahead:

Ka ([2]; 7 µM ligand)	ΔTm [3] [°C]	Ka ([4]; 7 µM ligand) [µM⁻¹]	Ka ([5]; 7 µM ligand)	Ka ([6]; 7 µM ligand)	Structure (SMILES)	also measured
1.167		0.165	0.528	1.411	C[n+]1ccc(/C=C/c2cc(/C=C/c3cc[n+](C)cc3)cc(/C=C/c3cc[n+](C)cc3)c2)cc1	
	0.7 ± 0.6				NCCOc1cc(C(=O)Nc2cc(OCCN)c3ccccc3n2)nc(C(=O)Nc2cc(OCCN)c3ccccc3n2)c1	ΔTm [10]: 24.0 ± 1.1 °C
